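Compound exposure: 48 hours, 5 concentrations, 96-well plates. Definition used: TGI = concentration required for complete inhibition of growth.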
Legend:
Assay in all cases: NCI tumour cell line growth inhibition, 48 h
MALME-3M melanoma = system: MALME-3M melanoma
SK-MEL-5 melanoma = system: SK-MEL-5 melanoma
NCI/ADR-RES ovarian = system: NCI/ADR-RES ovarian
A498 renal = system: A498 renal
MDA-N = system: MDA-N
SNB-75 CNS = system: SNB-75 CNS
OVCAR-5 ovarian = system: OVCAR-5 ovarian
OVCAR-8 ovarian = system: OVCAR-8 ovarian
HL-60(TB) leukemia = system: HL-60(TB) leukemia
SF-295 CNS = system: SF-295 CNS

Structure (SMILES) | TGI (MALME-3M melanoma) [µM] | TGI (SK-MEL-5 melanoma) [µM] | TGI (NCI/ADR-RES ovarian) [µM] | TGI (A498 renal) [µM] | TGI (MDA-N) [µM] | TGI (SNB-75 CNS) [µM] | TGI (OVCAR-5 ovarian) [µM] | TGI (OVCAR-8 ovarian) [µM] | TGI (HL-60(TB) leukemia) [µM] | TGI (SF-295 CNS) [µM]
N#Cc1nc(C#N)n(S(=O)(=O)c2ccccc2)c1NS(=O)(=O)c1ccccc1 | > 100 | > 100 | > 100 | > 100 | > 100 | > 100 | > 100 | > 100 | > 100 | > 100
COc1cc(CNc2nc3ccccc3nc2C(=O)O)cc(OC)c1OC | > 100 | > 100 | > 100 | > 100 | > 100 | > 100 | > 100 | > 100 | > 100 | > 100
Cc1cc2c(cc1C)[n+](=O)c(C(=O)c1ccccc1)c(C(F)(F)F)n2[O-] | 9.89 | 3.75 | > 26.2 | 13.6 | 14.2 | 10.7 | 10.2 | > 26.8 | 5.73 | 10.6
CCN(CC)c1nnc(CCCCCCCCc2nnc(N(CC)CC)o2)o1 | > 100 | > 100 | > 100 | > 100 | > 100 | > 100 | > 100 | > 100 | > 100 | > 100
O=[N+]([O-])c1ccc(C(O)(C#CCN2CCCC2)c2ccccc2)cc1 (stereo not given) | 30.4 | 42.6 | > 100 | 76.6 | > 100 | > 100 | > 100 | > 100 | 36.5 | > 100
CC[C@@]1(O)C(=O)OCc2c1cc1n(c2=O)Cc2c-1nc1ccccc1c2/C=N\NC(=O)C(N)CCSC (stereo not given in full) | 14.5 | 0.191 | 23.9 | 0.359 | > 100 | 1.44 | > 23.7 | 4.36 | 2.66 | 0.315
CCOC(=O)Cn1nnc2ccc(Nc3nc4ccccc4nc3-c3ccccc3)cc21 | > 100 | > 100 | > 100 | > 100 | > 100 | 99.1 | > 100 | > 100 | > 100 | > 100
CC(=O)O[C@H]1CC[C@@]2(C)C(=CC[C@@H]3[C@@H]2CC[C@]2(C)c4nc(Cl)ccc4C[C@@H]32)C1 | > 100 | 96.6 | > 100 | > 100 | > 100 | 94 | > 100 | > 100 | > 100 | 83.3
Nc1nc2c(C(=O)O)c3ccc([N+](=O)[O-])cc3c(=O)n2c2ccccc12 | > 100 | > 100 | 52.4 | > 100 | > 100 | 35.3 | > 100 | 34.8 | > 100 | 95.5
CN=C(Nc1cccc(C(F)(F)F)c1)SCc1ccc(N=C=S)cc1 | 27.8 | 30.1 | 61.3 | 34.6 | 28 | 28 | 30.2 | 40.7 | > 100 | 30.2
CCc1ccc2c(c1)N(CC(C)CN(C)C)c1ccccc1S2 (stereo not given) | 8.37 | 8.1 | 17.8 | 21.8 | 17.4 | 9.94 | 19.9 | 21.8 | 8.66 | 21.5
C=C1CC[C@@H](C)[C@](C)(CCc2ccoc2)C/C=C\C=C/1C(=O)O | > 100 | > 100 | > 100 | > 100 | 66.1 | > 100 | > 100 | 48.8 | 57 | > 100
